Results published in patent publication US20070049564A1 (Wyeth, priority 2005, published 2007).
In brackets after ≈: the same amount, converted by molar mass. Read-outs that look alike come from different tables or passages of the source.

Tests used:
E. coli = assay: Range of MIC for E. coli strains; conditions: Escherichia coli
S. typhimurium GC 2172 = assay: MIC, broth microdilution; conditions: Salmonella enterica, TYPHIMURIUM
E. faecalis GC 2242 = assay: MIC, broth microdilution
Staph. = assay: Range of MIC for Staph. strains, including MRSA; conditions: Staphylococcus aureus, MRSA
E. faecium GC 2243 = assay: MIC, broth microdilution
E. faecium GC 4556 = assay: MIC, broth microdilution; conditions: Enterococcus faecium
E. coli GC 2235 = assay: MIC, broth microdilution
S. aureus GC 6467 = assay: MIC, broth microdilution
S. aureus GC 6469 = assay: MIC, broth microdilution
E. coli GC 2270 = assay: MIC, broth microdilution; conditions: Escherichia coli, GC2270, pre-incubation in mouse serum
E. coli GC 1073 = assay: MIC, broth microdilution
E. coli GC 2231 = assay: MIC, broth microdilution
c. albicans GC 3066 = assay: MIC, broth microdilution
S. aureus GC 1079 = assay: MIC, broth microdilution
S. aureus GC 2216 = assay: MIC, broth microdilution
S. aureus GC 4536 = assay: MIC, broth microdilution
Experimental: Antimicrobial susceptibility testing. The in vitro activities of the antibiotics are determined by the broth microdilution method as recommended by the National Committee for Clinical Laboratory Standards (NCCLS) (1). Mueller-Hinton II broth (MHBII)(BBL Cockeysville, Md.) is the medium employed in the testing procedures. Microtiter plates containing serial dilutions of each antimicrobial agent are inoculated with each organism to yield the appropriate density (10^5 CFU/ml) in a 100 μl final volume. The plates are incubated for 18-22 hours at 35° C. in ambient air.
Representative compounds were first incubated in mouse serum for an hour prior to the in vitro testing against a panel of selected gram-positive and gram-negative bacteria strains. All compounds were also pre-incubated in water for an hour prior to testing as control. Representative compounds of Formula I were incubated in human serum prior to MIC determination.

S. aureus GC 6466 = assay: MIC, broth microdilution; conditions: Staphylococcus aureus, GC6466, pre-incubation in mouse serum

CCCCN(CC(=O)Nc1cc(N(C)C)c2c(c1O)C(=O)C1=C(O)[C@]3(O)C(=O)C(C(N)=O)=C(O)[C@@H](N(C)C)C3CC1C2)C(=O)OCc1oc(=O)oc1C (stereo partly drawn) [Example 109, (5-methyl-2-oxo-1,3-dioxol-4-yl)methyl 2-{[(7S,10aS)-9-(aminocarbonyl)-4,7-bis(dimethylamino)-1,8,10a,11-tetrahydroxy-10,12-dioxo-5,5a,6,6a,7,10,10a,12-octahydrotetracen-2-yl]amino}-2-oxoethyl(butyl)carbamate]
MIC (E. coli; 20 h, read-out: Range of MIC, E. coli (Mouse Serum)): 0.25 to 1 µg/mL (≈ 0.337 to 1.35 µM) | MIC (E. coli; read-out: Range of MIC, E. coli (Water)): 1 to 4 µg/mL (≈ 1.35 to 5.39 µM) | MIC (S. typhimurium GC 2172; pre-incubation in mouse serum): 4 µg/mL (≈ 5.39 µM) | MIC (S. typhimurium GC 2172; pre-incubation in water): 16 µg/mL (≈ 21.6 µM) | MIC (E. faecalis GC 2242; Enterococcus faecalis, GC2242, pre-incubation in mouse serum): 1 µg/mL (≈ 1.35 µM) | MIC (E. faecalis GC 2242; Enterococcus faecalis, GC2242, pre-incubation in water): 1 µg/mL (≈ 1.35 µM) | MIC (E. faecalis GC 2242; pre-incubation in water): 2 UG/ML | MIC (Staph.; read-out: Range of MIC, Staph (Mouse Serum)): 0.5 to 2 µg/mL (≈ 0.674 to 2.7 µM) | MIC (Staph.; read-out: Range of MIC, Staph (Water)): 4 to 8 µg/mL (≈ 5.39 to 10.8 µM) | MIC (E. faecium GC 2243; Enterococcus faecium, GC2243, pre-incubation in mouse serum): 0.5 µg/mL (≈ 0.674 µM) | MIC (E. faecium GC 2243; Enterococcus faecium, GC2243, pre-incubation in water): 0.5 µg/mL (≈ 0.674 µM) | MIC (E. faecium GC 2243; pre-incubation in water): 1 UG/ML | MIC (E. faecium GC 4556; GC4556, pre-incubation in mouse serum): 1 µg/mL (≈ 1.35 µM) | MIC (E. faecium GC 4556; GC4556, pre-incubation in water): 2 µg/mL (≈ 2.7 µM) | MIC (E. coli GC 2235; Escherichia coli, GC2235, pre-incubation in mouse serum): 0.25 µg/mL (≈ 0.337 µM) | MIC (E. coli GC 2235; Escherichia coli, GC2235, pre-incubation in water): 0.5 µg/mL (≈ 0.674 µM) | MIC (E. coli GC 2235; pre-incubation in mouse serum): 0.50 UG/ML | MIC (E. coli GC 2235; pre-incubation in water): 1 UG/ML | MIC (S. aureus GC 6467; Staphylococcus aureus, GC6467, pre-incubation in mouse serum): 2 µg/mL (≈ 2.7 µM) | MIC (S. aureus GC 6467; Staphylococcus aureus, GC6467, pre-incubation in water): 4 µg/mL (≈ 5.39 µM) | MIC (S. aureus GC 6467; pre-incubation in water): 8 UG/ML | MIC (S. aureus GC 6469; Staphylococcus aureus, GC6469, pre-incubation in mouse serum): 1 µg/mL (≈ 1.35 µM) | MIC (S. aureus GC 6469; pre-incubation in mouse serum): 2 UG/ML | MIC (E. coli GC 2270): 0.25 µg/mL (≈ 0.337 µM) | MIC (E. coli GC 1073; Escherichia coli, GC1073, pre-incubation in mouse serum): 0.5 µg/mL (≈ 0.674 µM) | MIC (E. coli GC 1073; pre-incubation in mouse serum): 1 UG/ML | MIC (E. coli GC 2231; Escherichia coli, GC2231, pre-incubation in mouse serum): 0.5 µg/mL (≈ 0.674 µM) | MIC (E. coli GC 2231; Escherichia coli, GC2231, pre-incubation in water): 1 µg/mL (≈ 1.35 µM) | MIC (E. coli GC 2231; pre-incubation in mouse serum): 1 UG/ML | MIC (E. coli GC 2231; pre-incubation in water): 2 UG/ML | MIC (c. albicans GC 3066; Candida albicans, GC3066): > 64 µg/mL | MIC (c. albicans GC 3066; pre-incubation in water): >64 UG/ML | MIC (S. aureus GC 1079; Staphylococcus aureus, GC1079, pre-incubation in mouse serum): 2 µg/mL (≈ 2.7 µM) | MIC (S. aureus GC 1079; Staphylococcus aureus, GC1079, pre-incubation in water): 4 µg/mL (≈ 5.39 µM) | MIC (S. aureus GC 1079; pre-incubation in water): 8 UG/ML | MIC (S. aureus GC 2216; Staphylococcus aureus, GC2216, pre-incubation in mouse serum): 1 µg/mL (≈ 1.35 µM) | MIC (S. aureus GC 2216; pre-incubation in mouse serum): 0.50 UG/ML | MIC (S. aureus GC 4536; Staphylococcus aureus, GC4536, pre-incubation in mouse serum): 1 µg/mL (≈ 1.35 µM) | MIC (S. aureus GC 4536; Staphylococcus aureus, GC4536, pre-incubation in water): 2 µg/mL (≈ 2.7 µM) | MIC (S. aureus GC 4536; pre-incubation in water): 4 UG/ML | MIC (S. aureus GC 6466): 0.5 µg/mL (≈ 0.674 µM)
